Assay results from patent US3965139A, “2-Chloro-N-(cyanomethyl)acetanilides” (Diamond Shamrock Corporation, priority 1974, dated 1976).

Key:
grass species [1] = experiment: Greenhouse Preemergence Herbicide Test, grass species; format: in vivo; conditions: two weeks after treatment
Experimental: To illustrate the preemergence herbicidal efficiency of the N-(cyanomethyl)acetanilides of this invention, test formulations are prepared of representative compounds by mixing 20 ml of an acetone solution containing 0.125 g of the test compound with 20 ml of water containing 0.01 g of Triton X-155 surfactant. The resultant formulations contain 3125 ppm of test compound, 50% by volume of acetone and 0.025% by weight of surfactant. Appropriate lower concentrations are obtained by diluting this formulation with surfactant-acetone solution so that the concentration of adjuvants is maintained at the original levels.
Seeds of three broadleaf and three grass species are planted in soil contained in 10 × 8 × 3 inch aluminum pans filled with 1.5 inches of composted soil. The broadleaf species are pigweed (Amaranthus retroflexus), a velvetleaf (Abutilon theophrasti), and morningglory (Ipomea coccinea); the grasses are red millet (Panicum milliacem), greenfoxtail (Setaria viridis) and Japanese millet (Echinochloa frumentacea).
The pans are then sprayed so that the soil surface is uniformly covered with dilutions of the stock formulation providing dosage rates of the test compounds corresponding to 8, 4, 2, 1, 0.5, and 0.25 lb/A. Two weeks after treatment, percent control (plant kill) at each dosage rate is estimated. The lowest concentration of each compound (lb/A) found to provide 50% or greater control of the grass weeds is as follows: […]

grassy-type weeds = experiment: Field Preemergence Test, light sandy soil, grasses overall; format: in vivo, goosegrass and giant foxtail
Text: (§1) Test plots of fertilized, light sandy soil containing 0.7% organic matter are sprayed uniformly with aqueous suspensions prepared from an emulsifiable concentrate containing 12%, by weight, of 2-chloro-N-cyanomethyl-2',6'-diethylacetanilide (the product of Example 1) diluted to provide dosage rates of the test compound corresponding to 2, 1, 0.5, and 0.25 pound per acre (lb/A). The plots are then sown with seeds of the following crop plants: sweet corn, cotton (Coker 413), and soybeans, var. Davis. Seeds of the following weed plants are planted: redroot pigweed, prickly sida, and common lambsquarter (broadleaf species); goosegrass and giant foxtail (grass species).
(§2) Three to four weeks after planting, percent control (plant kill) of the test plants is estimated, from a rating of 0 which denotes no injury to the plant up to 100 which denotes complete destruction. The % weed control exerted by 2-chloro-N-cyanomethyl-2',6'-diethylacetanilide is as follows: […]

Cotton = experiment: Field Preemergence Test, phytotoxic effects on crop; format: in vivo, cotton (Coker 413); conditions: light sandy soil; for % Crop Kill, Cotton: 3-4 weeks after planting
Text: as §1
(§3) Three to four weeks after planting, percent control (plant kill) of the test plants is estimated, from a rating of 0 which denotes no injury to the plant up to 100 which denotes complete destruction. The % weed control exerted by 2-chloro-N-cyanomethyl-2',6'-diethylacetanilide is as follows:
(§4) Phytotoxic effects observed on the crop species is estimated with results as follows: […]

Corn [2] = experiment: as above; format: in vivo, sweet corn; conditions: light sandy soil; for % Crop Kill, Corn: 3-4 weeks after planting
Text: as §1, §3, §4

Corn [3] = experiment: Preemergence test in loam-type heavier soil, crop; format: in vivo; conditions: for % Control of Plant Growth, Corn: about three weeks after planting, loam-type heavier soil
Lambsquarter = experiment: Field Preemergence Test, light sandy soil; format: in vivo, common lambsquarter; conditions: 3-4 weeks after planting
Text: as §1, §2

Soybeans [4] = experiment: Field Preemergence Test, phytotoxic effects on crop; format: in vivo, var. Davis; conditions: light sandy soil; for % Crop Kill, Soybeans: 3-4 weeks after planting
Text: as §1, §3, §4

Soybeans [5] = experiment: Preemergence test in loam-type heavier soil, crop; format: in vivo; conditions: for % Control of Plant Growth, Soybeans: about three weeks after planting, loam-type heavier soil
Text: (§5) This example illustrates the performance of 2-chloro-N-cyanomethyl-2',6'-diethylacetanilide in a different type soil than employed in the previous example. For this test, test plots of a loam-type, heavier soil containing 5.5% organic matter are sprayed uniformly with formulations of the test compound providing dosage rates of 4, 2, and 1 pound per acre (lb/A). The plots are then sown to cotton and soybeans and with seeds of the broadleaf, redroot pigweed, and the grasses, Johnson grass and yellow foxtail, as indicator weed plants.
(§6) Approximately three weeks after planting, the test plots are examined and percent control of plant growth is rated from 0% to 100% as previously described.

Yellow Foxtail = experiment: Preemergence test in loam-type heavier soil, weed; format: in vivo; conditions: about three weeks after planting
Text: as §5, §6

broadleaf species [6] = experiment: Preemergence test in loam-type heavier soil, broadleaf species; format: in vivo, redroot pigweed; conditions: 1-2 lb/A; heavy soil
Text: as §5, §6

Pigweed = experiment: Preemergence test in loam-type heavier soil, weed; format: in vivo, redroot pigweed; conditions: about three weeks after planting
Text: as §5, §6

Redroot Pigweed = experiment: Field Preemergence Test, light sandy soil; format: in vivo; conditions: 3-4 weeks after planting
Text: as §1, §2

Goosegrass = experiment: Field Preemergence Test, light sandy soil; format: in vivo; conditions: 3-4 weeks after planting
Text: as §1, §2

Prickly Sida = experiment: Field Preemergence Test, light sandy soil; format: in vivo; conditions: 3-4 weeks after planting
Text: as §1, §2

Giant Foxtail = experiment: Field Preemergence Test, light sandy soil; format: in vivo; conditions: 3-4 weeks after planting
Text: as §1, §2

grass species [7] = experiment: Preemergence test in loam-type heavier soil, grasses overall; format: in vivo, Johnson grass and yellow foxtail; conditions: 1-2 lb/A; heavy soil
Text: as §5, §6

broadleaf species [8] = experiment: Field Preemergence Test, light sandy soil, broadleaf species overall; format: in vivo, redroot pigweed, prickly sida, common lambsquarter
Text: as §1, §2

Johnsongrass = experiment: Preemergence test in loam-type heavier soil, weed; format: in vivo, Johnson grass; conditions: about three weeks after planting
Text: as §5, §6

Structure (SMILES): COc1ccccc1N(CC#N)C(=O)CCl [Example 13, 2-chloro-N-cyanomethyl-2'-methoxyacetanilide]
- Minimum Dosage Providing at Least 50% Preemergence Control of Grass Species (grass species [1]): 0.50 lb/A

Structure (SMILES): CC(C)c1cccc(C(C)C)c1N(CC#N)C(=O)CCl [Example 12, 2-chloro-N-cyanomethyl-2',6'-diisopropylacetanilide]
- Minimum Dosage Providing at Least 50% Preemergence Control of Grass Species (grass species [1]): 0.50 lb/A

Structure (SMILES): Cc1cccc(N(CC#N)C(=O)CCl)c1 [Example 8, 2-chloro-N-cyanomethyl-3'-methylacetanilide]
- Minimum Dosage Providing at Least 50% Preemergence Control of Grass Species (grass species [1]): 0.50 lb/A

Structure (SMILES): Cc1cccc(C)c1N(CC#N)C(=O)CCl [Example 10, 2-chloro-N-cyanomethyl-2',6'-dimethylacetanilide]
- Minimum Dosage Providing at Least 50% Preemergence Control of Grass Species (grass species [1]): 0.25 lb/A

Structure (SMILES): N#CCN(C(=O)CCl)c1ccccc1Br [Example 15, 2'-bromo-2-chloro-N-(cyanomethyl)acetanilide]
- Minimum Dosage Providing at Least 50% Preemergence Control of Grass Species (grass species [1]): 1.00 lb/A

Structure (SMILES): CCc1cccc(CC)c1N(CC#N)C(=O)CCl [Example 1, 2-chloro-N-cyanomethyl-2',6'-diethylacetanilide]
- control of grassy-type weeds (grassy-type weeds): good control
- Minimum Dosage Providing at Least 50% Preemergence Control of Grass Species (grass species [1]): 0.50 lb/A
- % Crop Kill, Cotton (Cotton; 1 lb/A): 0%
- % Crop Kill, Cotton (Cotton; 2 lb/A): 3%
- phytotoxicity effects on cotton (Cotton; 2 lb/A): minimal phytotoxicity effects
- % Crop Kill, Corn (Corn [2]; 1 lb/A): 0%
- % Crop Kill, Corn (Corn [2]; 2 lb/A): 0%
- tolerance of corn (Corn [2]; 2 lb/A): tolerant
- injury to corn stand (Corn [3]; 1-2 lb/A, heavy soil): noninjurious
- % Control of Plant Growth, Corn (Corn [3]; 1 lb/A): 0%
- % Control of Plant Growth, Corn (Corn [3]; 2 lb/A): 0%
- % Control of Plant Growth, Corn (Corn [3]; 4 lb/A): 10%
- % Weed Control, Lambsquarter (Lambsquarter; 0.25 lb/A): 0%
- % Weed Control, Lambsquarter (Lambsquarter; 0.5 lb/A): 20%
- % Weed Control, Lambsquarter (Lambsquarter; 1 lb/A): 60%
- % Weed Control, Lambsquarter (Lambsquarter; 2 lb/A): 88%
- % Crop Kill, Soybeans (Soybeans [4]; 1 lb/A): 0%
- % Crop Kill, Soybeans (Soybeans [4]; 2 lb/A): 0%
- tolerance of soybeans (Soybeans [4]; 2 lb/A): tolerant
- injury to soybean stand (Soybeans [5]; 1-2 lb/A, heavy soil): noninjurious
- % Control of Plant Growth, Soybeans (Soybeans [5]; 1 lb/A): 0%
- % Control of Plant Growth, Soybeans (Soybeans [5]; 2 lb/A): 0%
- % Control of Plant Growth, Soybeans (Soybeans [5]; 4 lb/A): 5%
- % Control of Plant Growth, Yellow Foxtail (Yellow Foxtail; 1 lb/A): 90%
- % Control of Plant Growth, Yellow Foxtail (Yellow Foxtail; 2 lb/A): 95%
- % Control of Plant Growth, Yellow Foxtail (Yellow Foxtail; 4 lb/A): 95%
- activity for controlling the broadleaf species (broadleaf species [6]): no activity
- % Control of Plant Growth, Pigweed (Pigweed; 1 lb/A): 0%
- % Control of Plant Growth, Pigweed (Pigweed; 2 lb/A): 0%
- % Control of Plant Growth, Pigweed (Pigweed; 4 lb/A): 40%
- % Weed Control, Redroot Pigweed (Redroot Pigweed; 0.25 lb/A): 0%
- % Weed Control, Redroot Pigweed (Redroot Pigweed; 0.5 lb/A): 33%
- % Weed Control, Redroot Pigweed (Redroot Pigweed; 1 lb/A): 55%
- % Weed Control, Redroot Pigweed (Redroot Pigweed; 2 lb/A): 90%
- % Weed Control, Goosegrass (Goosegrass; 0.25 lb/A): 63%
- % Weed Control, Goosegrass (Goosegrass; 0.5 lb/A): 88%
- % Weed Control, Goosegrass (Goosegrass; 1 lb/A): 95%
- % Weed Control, Goosegrass (Goosegrass; 2 lb/A): 99%
- % Weed Control, Prickly Sida (Prickly Sida; 0.25 lb/A): 0%
- % Weed Control, Prickly Sida (Prickly Sida; 0.5 lb/A): 0%
- % Weed Control, Prickly Sida (Prickly Sida; 1 lb/A): 12%
- % Weed Control, Prickly Sida (Prickly Sida; 2 lb/A): 40%
- % Weed Control, Giant Foxtail (Giant Foxtail; 0.25 lb/A): 0%
- % Weed Control, Giant Foxtail (Giant Foxtail; 0.5 lb/A): 27%
- % Weed Control, Giant Foxtail (Giant Foxtail; 1 lb/A): 65%
- % Weed Control, Giant Foxtail (Giant Foxtail; 2 lb/A): 82%
- selectivity for controlling the grass species (grass species [7]): selective for controlling the grass species
- broadleaf weed control in a light, sandy soil (broadleaf species [8]; 1-2 lb/A): good broadleaf weed control
- herbicidal activity against two of the broadleaf species (broadleaf species [8]; 2 lb/A): significant herbicidal activity
- % Control of Plant Growth, Johnsongrass (Johnsongrass; 1 lb/A): 60%
- % Control of Plant Growth, Johnsongrass (Johnsongrass; 2 lb/A): 80%
- % Control of Plant Growth, Johnsongrass (Johnsongrass; 4 lb/A): 80%

Structure (SMILES): CCc1ccccc1N(CC#N)C(=O)CCl [Example 14, 2-chloro-N-cyanomethyl-2'-ethylacetanilide]
- Minimum Dosage Providing at Least 50% Preemergence Control of Grass Species (grass species [1]): 0.50 lb/A

Structure (SMILES): N#CCN(C(=O)CCl)c1ccccc1Cl [Example 9, 2,2'-dichloro-N-(cyanomethyl)acetanilide]
- Minimum Dosage Providing at Least 50% Preemergence Control of Grass Species (grass species [1]): 0.50 lb/A

Structure (SMILES): CC(C)c1ccccc1N(CC#N)C(=O)CCl [Example 11, 2-chloro-N-cyanomethyl-2'-isopropylacetanilide]
- Minimum Dosage Providing at Least 50% Preemergence Control of Grass Species (grass species [1]): 1.00 lb/A
